How the values were obtained:
Experiment in all cases: SDS activity gel analysis, incorporation of ddNMP relative to dNMP (Example 2)
Type in all cases: biochemical
[1] = biological target: T1, Taq DNA polymerase mutant Taq C-Q2, R R A A K T F I Y G F L Y G (Thermus aquaticus, UniProt P19821, F667Y/I665F/N666I/V669F); conditions: renatured enzyme in gel; 1.5 µM 4dNTPs with or without 30 µM ddTTP; 70 °C 2 hr
T1 construct: the large fragment of Taq DNA polymerase (KlenTaq or _Taq DNA polymerase); made in house; crude lysate, renatured in gel
Method: (§1) Mutant DNA polymerases are screened for their ability to incorporate dideoxynucleotides by SDS activity gel analysis. The procedure is a modification of that described by Spanos and Hübscher 91 Methods in Enzymology 263, 1983 and Karawya et al. 135 Analytical Biochemistry 318, 1983. Briefly, 10 ml of cells are induced for 4 to 6 hours and then pelleted. The cell pellet is resuspended in 0.3 ml 25 mM Tris HCl, pH 7.0, 5 mM EDTA. 20 µl of the resuspended cells are mixed with 40 µl of a solution of 1% SDS (sodium dodecyl sulfate), 2% mercaptoethanol, 30 % glycerol, 0.04% bromphenol blue, and 100 mM TrisHCl, pH 6.8. The mixtures are incubated at 37 °C for 5 min, and then 20 µl aliquots are loaded in duplicate onto two SDS polyacrylamide gels. The SDS polyacrylamide gels consist of a resolving gel that contains 8% polyacrylamide, 0.27% bisacrylamide, 190 mM TrisHCl, pH 8.8, 0.05% SDS, and 25 µg/ml denatured salmon sperm DNA, and a stacking gel that consists of 5% polyacrylamide, 0.17% bisacrylamide, 150 mM TrisHCl, pH 6.8, and 0.1% SDS. The two gels are electrophoresed at 100 V for 13 hr at a constant temperature of 13 °C in an electrophoresis buffer consisting of 190 mM TrisHCl and pH 8.8, 0.05% SDS.
(§2) After electrophoresis, the gels are washed over 8 hr in 4 changes of 500 ml each of Renaturation Buffer (50 mM Tris.HCl, pH 7.5, 5 mM magnesium acetate, 1 mM dithiothreitol, 40 mM KCI, 400 µg/ml bovine serum albumin, 16% glycerol and 0.95 mM EDTA) at 4 °C.
(§3) The renatured proteins are assayed for DNA polymerase activity by incubating each of the two gels in 6 ml of Renaturation Buffer, 1.5 µM 4dNTPs, 4 µl of [a-^32P]dATP (800 Ci/mmol, 10 mCi/ml), and 80 µg of purified thioredoxin. One of the mixtures also contains 30 µM ddTTP (a 20-fold molar excess over dTTP). The mixtures are incubated for 4 hr at 37 °C (70 °C for 2 hr for thermophilic DNA polymerases).
(§4) After incubation the gels are washed for 8 hr against four changes of 5% trichloracetic acid and 1% sodium pyrophosphate. The gels are then dried and autoradiographed.
(§5) To determine whether a mutant DNA polymerase is discriminating more or less against ddTTP, the intensities of the radioactive bands are compared on the two gels that were incubated in the presence and absence of ddTTP, and the ratio of the signal in the two bands for the unmodified DNA polymerase is compared with the ratio of the signal in the two bands for each of the mutants.

[2] = biological target: T2, Taq DNA polymerase mutant Taq C-Q1, R D N A K T I N F G V L Y G (Thermus aquaticus, UniProt P19821, A661N/R660D); conditions: renatured enzyme in gel; 1.5 µM 4dNTPs with or without 30 µM ddTTP; 70 °C 2 hr
T2 construct: the large fragment of Taq DNA polymerase (KlenTaq or _Taq DNA polymerase); made in house; crude lysate, renatured in gel
Method: as §1, §2, §3, §4, §5

[3] = biological target: T3, Taq DNA polymerase mutant Taq C-Q3, R R A A K T I I Y G V L Y G (Thermus aquaticus, UniProt P19821, F667Y/N666I); conditions: renatured enzyme in gel; 1.5 µM 4dNTPs with or without 30 µM ddTTP; 70 °C 2 hr
T3 construct: the large fragment of Taq DNA polymerase (KlenTaq or _Taq DNA polymerase); made in house; crude lysate, renatured in gel
Method: as §1, §2, §3, §4, §5

[4] = biological target: T4, Taq DNA polymerase mutant Taq C-Q4, R R A A K T I I F G V L Y G (Thermus aquaticus, UniProt P19821, N666I); conditions: renatured enzyme in gel; 1.5 µM 4dNTPs with or without 30 µM ddTTP; 70 °C 2 hr
T4 construct: the large fragment of Taq DNA polymerase (KlenTaq or _Taq DNA polymerase); made in house; crude lysate, renatured in gel
Method: as §1, §2, §3, §4, §5

[5] = biological target: T5, E. coli DNA polymerase I, wild type (Pol I WT), R R S A K A I N F G L I Y G (Escherichia coli, UniProt P00582)
T5 construct: the large fragment of E. coli DNA polymerase I (Klenow fragment); made in house; crude lysate, renatured in gel
Method: as §1, §2, §3, §4, §5

[6] = biological target: T6, E. coli DNA polymerase I mutant Pol I C-K5, R R S A K A I I F G L I Y G (Escherichia coli, UniProt P00582, N761I); conditions: renatured enzyme in gel; 1.5 µM 4dNTPs with or without 30 µM ddTTP; 37 °C 4 hr
T6 construct: the large fragment of E. coli DNA polymerase I (Klenow fragment); made in house; crude lysate, renatured in gel
Method: as §1, §2, §3, §4, §5

[7] = biological target: T7, E. coli DNA polymerase I mutant Pol I C-K6 (F762Y), R R S A K A I N Y G L I Y G (Escherichia coli, UniProt P00582, F762Y)
T7 construct: the large fragment of E. coli DNA polymerase I (Klenow fragment); made in house; crude lysate, renatured in gel
Method: as §1, §2, §3, §4, §5

[8] = biological target: T8, E. coli DNA polymerase I mutant Pol I C-K4, R R S A K A I I Y G L I Y G (Escherichia coli, UniProt P00582, F762Y/N761I); conditions: renatured enzyme in gel; 1.5 µM 4dNTPs with or without 30 µM ddTTP; 37 °C 4 hr
T8 construct: the large fragment of E. coli DNA polymerase I (Klenow fragment); made in house; crude lysate, renatured in gel
Method: as §1, §2, §3, §4, §5

[9] = biological target: T9, E. coli DNA polymerase I mutant Pol I C-K3, R R S A K T F N F G L I Y G (Escherichia coli, UniProt P00582, A759T/I760F); conditions: renatured enzyme in gel; 1.5 µM 4dNTPs with or without 30 µM ddTTP; 37 °C 4 hr
T9 construct: the large fragment of E. coli DNA polymerase I (Klenow fragment); made in house; crude lysate, renatured in gel
Method: as §1, §2, §3, §4, §5

[10] = biological target: T10, E. coli DNA polymerase I mutant Pol I C-K2, R R S A K T F I Y G L I Y G (Escherichia coli, UniProt P00582, A759T/F762Y/I760F/N761I); conditions: renatured enzyme in gel; 1.5 µM 4dNTPs with or without 30 µM ddTTP; 37 °C 4 hr
T10 construct: the large fragment of E. coli DNA polymerase I (Klenow fragment); made in house; crude lysate, renatured in gel
Method: as §1, §2, §3, §4, §5

[11] = biological target: T11, Taq DNA polymerase, wild type (Taq WT), R R A A K T I N F G V L Y G (Thermus aquaticus, UniProt P19821); conditions: renatured enzyme in gel; 1.5 µM 4dNTPs with or without 30 µM ddTTP; 70 °C 2 hr
T11 construct: the large fragment of Taq DNA polymerase (KlenTaq or _Taq DNA polymerase); made in house; crude lysate, renatured in gel
Method: as §1, §2, §3, §4, §5

[12] = biological target: T12, E. coli DNA polymerase I mutant Pol I C-K1, R D N A K T F I Y G F L Y G (Escherichia coli, UniProt P00582, A759T/F762Y/I760F/I765L/L764F/N761I/R755D/S756N); conditions: renatured enzyme in gel; 1.5 µM 4dNTPs with or without 30 µM ddTTP; 37 °C 4 hr
T12 construct: the large fragment of E. coli DNA polymerase I (Klenow fragment); made in house; crude lysate, renatured in gel
Method: as §1, §2, §3, §4, §5

[13] = biological target: T13, Taq DNA polymerase mutant Tqa C-Q5 (F667Y), R R A A K T I N Y G V L Y G (Thermus aquaticus, UniProt P19821, F667Y); conditions: renatured enzyme in gel; 1.5 µM 4dNTPs with or without 30 µM ddTTP; 70 °C 2 hr
T13 construct: the large fragment of Taq DNA polymerase (KlenTaq or _Taq DNA polymerase); made in house; crude lysate, renatured in gel
Method: as §1, §2, §3, §4, §5

[14] = renatured enzyme in gel, 1.5 µM 4dNTPs with or without 30 µM ddTTP, 37 °C 4 hr

T5 sequence (P00582 324-928): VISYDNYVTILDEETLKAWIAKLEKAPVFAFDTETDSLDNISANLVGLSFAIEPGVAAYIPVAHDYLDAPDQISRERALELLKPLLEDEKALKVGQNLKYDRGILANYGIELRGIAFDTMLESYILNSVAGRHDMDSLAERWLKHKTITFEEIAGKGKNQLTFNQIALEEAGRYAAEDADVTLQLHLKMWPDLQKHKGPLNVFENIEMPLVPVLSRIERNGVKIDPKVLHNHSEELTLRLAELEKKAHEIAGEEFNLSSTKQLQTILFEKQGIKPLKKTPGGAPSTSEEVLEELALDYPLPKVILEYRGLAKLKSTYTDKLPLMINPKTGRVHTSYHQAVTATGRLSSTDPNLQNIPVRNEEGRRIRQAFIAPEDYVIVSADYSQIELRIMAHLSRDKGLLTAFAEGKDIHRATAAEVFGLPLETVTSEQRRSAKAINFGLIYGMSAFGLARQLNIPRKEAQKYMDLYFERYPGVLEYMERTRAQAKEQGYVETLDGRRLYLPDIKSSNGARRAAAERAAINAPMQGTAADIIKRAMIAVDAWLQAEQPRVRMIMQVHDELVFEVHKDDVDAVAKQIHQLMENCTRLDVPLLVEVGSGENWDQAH
T7 sequence (P00582 324-928 F762Y): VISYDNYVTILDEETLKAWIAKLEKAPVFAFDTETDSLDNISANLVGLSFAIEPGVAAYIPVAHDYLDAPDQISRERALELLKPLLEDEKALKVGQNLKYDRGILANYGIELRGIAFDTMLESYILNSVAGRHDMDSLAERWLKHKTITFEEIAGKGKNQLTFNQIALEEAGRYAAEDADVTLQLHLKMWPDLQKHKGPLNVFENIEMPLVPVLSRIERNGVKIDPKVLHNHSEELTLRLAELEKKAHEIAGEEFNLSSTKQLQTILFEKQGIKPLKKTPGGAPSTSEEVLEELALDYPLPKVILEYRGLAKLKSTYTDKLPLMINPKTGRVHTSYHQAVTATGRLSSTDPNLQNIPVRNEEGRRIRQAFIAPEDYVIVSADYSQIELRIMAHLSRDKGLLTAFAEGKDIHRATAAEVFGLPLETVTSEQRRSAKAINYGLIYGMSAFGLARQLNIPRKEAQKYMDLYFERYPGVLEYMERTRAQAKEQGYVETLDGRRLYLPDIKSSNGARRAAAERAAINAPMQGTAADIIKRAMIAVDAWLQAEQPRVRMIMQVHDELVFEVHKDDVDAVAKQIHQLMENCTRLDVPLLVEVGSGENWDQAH
T1 sequence (P19821 236-832 I665F/N666I/F667Y/V669F): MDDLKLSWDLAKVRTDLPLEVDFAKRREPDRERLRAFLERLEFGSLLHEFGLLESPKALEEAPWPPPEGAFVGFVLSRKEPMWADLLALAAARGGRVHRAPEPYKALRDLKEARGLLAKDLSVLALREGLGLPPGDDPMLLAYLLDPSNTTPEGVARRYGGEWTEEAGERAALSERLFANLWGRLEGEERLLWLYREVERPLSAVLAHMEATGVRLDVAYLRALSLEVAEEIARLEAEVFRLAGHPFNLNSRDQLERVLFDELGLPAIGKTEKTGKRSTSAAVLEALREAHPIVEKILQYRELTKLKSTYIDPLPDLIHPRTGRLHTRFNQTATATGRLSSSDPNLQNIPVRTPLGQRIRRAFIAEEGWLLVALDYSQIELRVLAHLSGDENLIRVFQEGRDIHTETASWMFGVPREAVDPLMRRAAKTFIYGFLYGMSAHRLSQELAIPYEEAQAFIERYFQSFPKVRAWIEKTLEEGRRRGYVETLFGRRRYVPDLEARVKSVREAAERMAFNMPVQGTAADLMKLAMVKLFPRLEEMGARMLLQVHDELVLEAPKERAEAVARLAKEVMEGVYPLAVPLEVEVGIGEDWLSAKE
T4 sequence (P19821 236-832 N666I): as the sequence (P19821 236-832 I665F/N666I/F667Y/V669F) above, with F430I, Y432F, F434V counted along it
T3 sequence (P19821 236-832 N666I/F667Y): as the sequence (P19821 236-832 I665F/N666I/F667Y/V669F) above, with F430I, F434V counted along it
T12 sequence (P00582 324-928 R755D/S756N/A759T/I760F/N761I/F762Y/L764F/I765L): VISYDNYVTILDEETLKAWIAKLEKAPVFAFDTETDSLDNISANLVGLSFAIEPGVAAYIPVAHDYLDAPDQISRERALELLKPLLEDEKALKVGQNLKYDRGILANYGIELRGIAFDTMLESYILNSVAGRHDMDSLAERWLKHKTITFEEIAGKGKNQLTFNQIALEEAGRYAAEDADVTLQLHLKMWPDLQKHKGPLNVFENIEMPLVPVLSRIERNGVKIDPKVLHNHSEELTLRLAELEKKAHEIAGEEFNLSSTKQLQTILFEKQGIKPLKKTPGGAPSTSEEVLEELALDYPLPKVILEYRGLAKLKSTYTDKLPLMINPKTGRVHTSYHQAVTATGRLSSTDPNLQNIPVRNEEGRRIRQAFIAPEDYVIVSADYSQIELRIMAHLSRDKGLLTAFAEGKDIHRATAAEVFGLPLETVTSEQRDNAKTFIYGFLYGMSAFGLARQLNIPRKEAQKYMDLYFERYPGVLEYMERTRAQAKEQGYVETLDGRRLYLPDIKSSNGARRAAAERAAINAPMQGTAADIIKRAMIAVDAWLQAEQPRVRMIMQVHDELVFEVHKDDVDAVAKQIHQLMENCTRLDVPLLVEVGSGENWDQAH
T8 sequence (P00582 324-928 N761I/F762Y): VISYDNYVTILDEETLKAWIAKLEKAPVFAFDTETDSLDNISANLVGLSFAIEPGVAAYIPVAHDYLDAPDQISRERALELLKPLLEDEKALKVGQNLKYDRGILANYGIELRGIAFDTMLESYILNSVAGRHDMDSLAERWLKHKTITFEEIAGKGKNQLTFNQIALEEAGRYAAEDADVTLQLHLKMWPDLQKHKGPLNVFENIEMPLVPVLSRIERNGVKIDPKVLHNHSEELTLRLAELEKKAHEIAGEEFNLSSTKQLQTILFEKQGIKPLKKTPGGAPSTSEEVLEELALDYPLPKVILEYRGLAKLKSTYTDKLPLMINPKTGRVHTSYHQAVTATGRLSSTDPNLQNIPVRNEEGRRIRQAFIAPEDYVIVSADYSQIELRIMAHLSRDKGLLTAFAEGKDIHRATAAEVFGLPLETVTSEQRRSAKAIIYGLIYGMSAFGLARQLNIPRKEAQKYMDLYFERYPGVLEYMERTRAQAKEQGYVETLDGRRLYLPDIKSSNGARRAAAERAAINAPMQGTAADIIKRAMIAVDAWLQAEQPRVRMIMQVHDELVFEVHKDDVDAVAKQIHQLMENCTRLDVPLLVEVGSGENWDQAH
T13 sequence (P19821 236-832 F667Y): as the sequence (P19821 236-832 I665F/N666I/F667Y/V669F) above, with F430I, I431N, F434V counted along it
T6 sequence (P00582 324-928 N761I): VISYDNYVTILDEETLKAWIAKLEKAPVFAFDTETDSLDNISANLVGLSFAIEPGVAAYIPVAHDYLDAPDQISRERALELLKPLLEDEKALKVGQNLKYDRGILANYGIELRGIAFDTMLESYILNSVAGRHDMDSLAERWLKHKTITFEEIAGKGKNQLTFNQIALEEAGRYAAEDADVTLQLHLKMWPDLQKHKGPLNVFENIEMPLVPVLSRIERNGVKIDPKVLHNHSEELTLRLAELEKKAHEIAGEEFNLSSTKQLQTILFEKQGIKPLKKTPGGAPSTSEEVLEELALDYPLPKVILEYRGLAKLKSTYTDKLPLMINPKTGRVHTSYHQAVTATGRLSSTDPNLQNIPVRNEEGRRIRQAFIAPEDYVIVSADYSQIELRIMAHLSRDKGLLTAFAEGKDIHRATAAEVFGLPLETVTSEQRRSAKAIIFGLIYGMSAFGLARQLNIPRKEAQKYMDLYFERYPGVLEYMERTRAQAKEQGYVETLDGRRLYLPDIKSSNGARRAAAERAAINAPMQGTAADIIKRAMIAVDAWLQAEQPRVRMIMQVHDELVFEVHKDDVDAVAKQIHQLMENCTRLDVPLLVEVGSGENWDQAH
T2 sequence (P19821 236-832 R660D/A661N): as the sequence (P19821 236-832 I665F/N666I/F667Y/V669F) above, with R425D, A426N, F430I, I431N, Y432F, F434V counted along it
T10 sequence (P00582 324-928 A759T/I760F/N761I/F762Y): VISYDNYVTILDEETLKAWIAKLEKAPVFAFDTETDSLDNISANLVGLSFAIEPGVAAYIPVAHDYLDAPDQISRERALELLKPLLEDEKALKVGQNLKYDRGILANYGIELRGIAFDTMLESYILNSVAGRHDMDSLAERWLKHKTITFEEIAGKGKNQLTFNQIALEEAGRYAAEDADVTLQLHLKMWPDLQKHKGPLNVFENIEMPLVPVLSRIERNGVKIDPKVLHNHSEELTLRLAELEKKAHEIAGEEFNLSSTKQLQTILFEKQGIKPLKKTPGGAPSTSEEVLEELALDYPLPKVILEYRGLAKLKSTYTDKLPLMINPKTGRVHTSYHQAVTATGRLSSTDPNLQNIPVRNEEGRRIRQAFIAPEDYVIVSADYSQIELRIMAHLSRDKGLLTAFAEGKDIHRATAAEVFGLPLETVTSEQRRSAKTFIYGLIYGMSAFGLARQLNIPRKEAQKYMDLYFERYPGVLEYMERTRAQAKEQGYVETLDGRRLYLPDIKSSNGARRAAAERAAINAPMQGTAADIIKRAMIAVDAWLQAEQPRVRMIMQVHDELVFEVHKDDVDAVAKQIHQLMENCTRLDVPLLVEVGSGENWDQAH
T9 sequence (P00582 324-928 A759T/I760F): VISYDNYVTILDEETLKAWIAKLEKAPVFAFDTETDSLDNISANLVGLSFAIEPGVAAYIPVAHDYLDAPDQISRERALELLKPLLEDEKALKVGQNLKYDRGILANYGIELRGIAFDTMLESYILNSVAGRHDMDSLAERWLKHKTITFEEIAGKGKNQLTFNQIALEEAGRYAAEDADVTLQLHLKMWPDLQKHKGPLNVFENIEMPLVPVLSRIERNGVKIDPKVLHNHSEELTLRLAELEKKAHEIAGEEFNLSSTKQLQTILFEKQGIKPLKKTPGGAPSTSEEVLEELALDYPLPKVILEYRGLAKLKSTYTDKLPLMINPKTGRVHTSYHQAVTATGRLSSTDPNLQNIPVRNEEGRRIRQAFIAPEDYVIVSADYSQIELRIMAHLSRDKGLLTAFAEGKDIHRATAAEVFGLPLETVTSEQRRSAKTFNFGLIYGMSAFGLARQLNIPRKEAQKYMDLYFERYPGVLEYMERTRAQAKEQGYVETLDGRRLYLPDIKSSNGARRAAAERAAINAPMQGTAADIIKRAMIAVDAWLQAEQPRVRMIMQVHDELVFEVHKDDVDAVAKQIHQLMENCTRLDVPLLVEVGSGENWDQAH

Cc1cn([C@H]2CC[C@@H](COP(=O)(O)OP(=O)(O)OP(=O)(O)O)O2)c(=O)[nH]c1=O [ddTTP]
High: ddNTP Discrimination [2] | ddNTP Discrimination [4] | ddNTP Discrimination [5, 14] | ddNTP Discrimination [6] | ddNTP Discrimination [9] | ddNTP Discrimination [11]
< 5%: activity at 30 µM ([7]; read-out: intensity of the bands in the presence of ddTTP relative to the absence of ddTTP)
approximately the same intensity: intensity of the bands in the presence versus the absence of ddTTP ([5]; 30 µM ddTTP (20-fold molar excess over dTTP), 1.5 µM 4dNTPs, within a factor of two)
Low: ddNTP Discrimination [1] | ddNTP Discrimination [3] | ddNTP Discrimination [7, 14] | ddNTP Discrimination [8] | ddNTP Discrimination [10] | ddNTP Discrimination [12] | ddNTP Discrimination [13]
